Results reported in patent US20210122763A1, “OGA INHIBITOR COMPOUNDS” (Janssen Pharmaceutica NV, priority 2018, published 2021).

How the values were obtained:
[1] = molecular target: T1, OGA (Homo sapiens, UniProt O60502); test: OGA cellular assay (ICC detection of O-GlcNAcylated proteins in HEK293 cells inducible for P301L mutant human Tau); assay type: cell-based; details: 6 hours incubation; for Emax: HEK293, HEK293 cells inducible for P301L mutant human Tau, maximum = Thiamet G 200 uM; for EC50: HEK293 cells inducible for P301L mutant human Tau, read-out: Cellular hOGA, pEC50 (converted)
T1 construct: HEK293 cells inducible for P301L mutant human Tau (isoform 2N4R) were established at Janssen; endogenous in cells; host or cells: HEK293 cells inducible for P301L mutant human Tau (2N4R)
T1 sequence (O60502 1-916): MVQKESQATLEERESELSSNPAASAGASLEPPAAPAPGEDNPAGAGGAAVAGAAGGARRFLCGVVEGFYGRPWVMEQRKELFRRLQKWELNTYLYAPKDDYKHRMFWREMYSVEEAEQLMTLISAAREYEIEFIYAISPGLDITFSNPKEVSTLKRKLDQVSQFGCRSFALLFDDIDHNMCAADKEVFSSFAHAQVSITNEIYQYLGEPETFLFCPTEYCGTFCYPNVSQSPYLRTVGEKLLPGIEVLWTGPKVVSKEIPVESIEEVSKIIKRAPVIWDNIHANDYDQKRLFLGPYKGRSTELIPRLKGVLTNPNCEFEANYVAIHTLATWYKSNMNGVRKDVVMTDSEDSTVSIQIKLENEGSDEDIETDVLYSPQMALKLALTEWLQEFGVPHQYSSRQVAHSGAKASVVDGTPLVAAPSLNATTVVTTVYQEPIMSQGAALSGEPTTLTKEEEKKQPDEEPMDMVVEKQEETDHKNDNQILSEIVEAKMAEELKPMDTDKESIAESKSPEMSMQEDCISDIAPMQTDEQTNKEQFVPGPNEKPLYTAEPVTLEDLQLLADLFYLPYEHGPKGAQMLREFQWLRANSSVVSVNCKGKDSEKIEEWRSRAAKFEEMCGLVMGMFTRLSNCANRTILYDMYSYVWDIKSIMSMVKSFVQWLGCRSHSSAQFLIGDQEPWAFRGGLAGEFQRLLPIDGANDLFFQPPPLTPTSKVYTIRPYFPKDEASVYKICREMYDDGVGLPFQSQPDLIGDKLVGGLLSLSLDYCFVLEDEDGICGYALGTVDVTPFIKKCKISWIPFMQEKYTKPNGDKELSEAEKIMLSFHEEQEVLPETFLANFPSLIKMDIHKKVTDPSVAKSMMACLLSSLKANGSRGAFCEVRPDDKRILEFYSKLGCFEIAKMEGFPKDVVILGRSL
Procedure, shortened: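 HEK293 cells with inducible P301L 2N4R Tau, seeded in low-glucose medium, were exposed to compounds for 6 hours (0.2% DMSO), then PFA-fixed and stained with CTD110.6. Imaging intensity at 488 nm measured O-GlcNAcylation, with Hoechst nuclei counts for toxicity. IC50s came from non-linear regression, with Thiamet G at 200 uM as maximum inhibition.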

[2] = molecular target: T2, recombinant human Meningioma Expressed Antigen 5 (MGEA5), also referred to as O-GlcNAcase (OGA) (Homo sapiens, UniProt O60502); test: OGA biochemical assay (inhibition of FM-GlcNAc hydrolysis, fluorescence); details: for Emax: read-out: Enzymatic Emax (%); for IC50: read-out: Enzymatic hOGA, pIC50 (converted)
T2 construct: Full length OGA enzyme was purchased at OriGene (cat #TP322411); purchased OriGene TP322411
T2 sequence (O60502 1-916): T1 sequence (O60502 1-916)
Procedure, shortened: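 Full-length OGA at 2 nM was pre-incubated 60 min at room temperature with compound, then FM-GlcNAc at 100 uM final was added in citrate/phosphate buffer pH 7.2 with 0.005% Tween-20. After 6 h at room temperature, carbonate pH 11.0 stopped the reaction. Fluorescence read at 485/538 nm; IC50 and Hill coefficient from curve fit against no-inhibitor and saturating-standard controls.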

SMILES	Emax [1] [%]	EC50 [1] [nM]	melting point [°C]	Emax [2] [%]	IC50 [2] [nM]
Cc1ccc(OC2CCN(C(C)c3ccc4c(n3)OCCO4)CC2)nn1.Cl (stereo not drawn) [Compound 151]	30	> 1000	168	98	200
Cc1cc(NC2CCN(C(C)c3nc4c(cc3F)OCCO4)CC2)cc(C)n1 (stereo not drawn) [Compound 133]	87	50.1	250	97	25.1
Cc1ncc(COC2CCN([C@@H](C)c3nc4c(cc3F)OCCO4)CC2)cn1 (single isomer, unassigned) [Compound 137]	25	> 1000	70.1	96	398
Cc1ncc(OC2CCN(C(C)c3ccc4c(n3)OCCO4)CC2)cn1.Cl (stereo not drawn) [Compound 90]	48	> 1000	72.8	100	100
Cc1nc(OC2CCN(C(C)c3nc4c(cc3F)OCCO4)CC2)ccc1C#N (stereo not drawn) [Compound 112]	87	158	153.41	96	10
Cc1cnc(OC2CCN(C(C)c3ccc4c(n3)OCCO4)CC2)cn1 (stereo not drawn) [Compound 141]	51	794	119.6	97	200
CCOc1cc(OC2CCN(C(C)c3ccc4c(n3)OCCO4)CC2)cc(C)n1.Cl (stereo not drawn) [Compound 142]	73	158	119.6	104	25.1
Cc1cc(OC2CCN(C(C)c3nc4c(cc3F)OCCO4)CC2)ncc1C#N (stereo not drawn) [Compound 113]	83	126	161.44	96	15.8
Cc1ncc(OC2CCN(C(C)c3ccc4c(n3)OCCC4)CC2)cn1.Cl (stereo not drawn) [Compound 139]	31	> 1000	208.1	95	200
Cc1cncc(OC2CCN(C(C)c3ccc4c(n3)OCCO4)CC2)n1 (stereo not drawn) [Compound 76]	36	> 1000	91.71	99	79.4
Cc1cc(OC2CCN([C@H](C)c3nc4c(cc3F)CCO4)CC2)cc(C)n1 (single isomer, unassigned) [Compound 143]	100	17.4	105.3	99	5.01
Cc1ccc(OC2CCN(C(C)c3ccc4c(c3)OCO4)CC2)cn1.Cl (stereo not drawn) [Compound 31]	21	> 1000	278.4	96	794
Cc1ncc(OC2CCN(C(C)c3ccc4c(c3)OCO4)CC2)cn1.Cl (stereo not drawn) [Compound 30]	15	> 1000	213.2	100	794
CC(c1ccc2c(n1)OCCO2)N1CCC(Oc2ccc(C#N)nc2)CC1 (stereo not drawn) [Compound 150]	57	398	133	95	79.4
Cc1cc(CC2CCN(C(C)c3ccc4c(n3)OCCO4)CC2)cc(C)n1 (stereo not drawn) [Compound 140]	64	251	144.6	98	398
